Data as given in patent US20230123334A1, “AMINO LIPID COMPOUND, PREPARATION METHOD THEREFOR, AND APPLICATION THEREOF” (SHENZHEN SHENXIN BIOTECHNOLOGY CO., LTD., priority 2020, published 2023).

Test system: HEK293 cells
Test: Preliminary screening as DNA vectors, GFP transfection of HEK293 cells
Assay type: cell-based
Conditions: amino lipid/DOPE liposome with 75 ng plasmid DNA (psin-EGFP-IRES-Puro); number of GFP-expressing cells divided by total nuclei (Hoechst)
How it was run: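 First, amino lipid and DOPE were vortexed in sodium acetate buffer (pH 5.6) to form liposomes. Next, these were held with 75 ng EGFP plasmid at room temperature for 30 min. Finally, HEK293 cells were added, cultured at 37° C., Hoechst-stained, and GFP+/total nuclei scored by imaging.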

| Compound | Absolute DNA transfection efficiency in HEK293 cells |
| --- | --- |
| CCCCCCCCCCCCSc1nc(NCCCCCCCC)nc(NCCN(C)C)n1 [S12N8 D1] | 6.0% |
| CCCCCCCCCCCCCCCCCCSc1nc(NCCN2CCN(C)CC2)nc(SCCCCCCC)n1 [S7S18 D5] | 14.2% |
| CCCCCCCCCCCCSc1nc(NCCCCCC)nc(NCCN2CCCC2)n1 [S12N6 D3] | 0.0% |
| CCCCCCCCCCCCCCCCCCSc1nc(NCCCCCCC)nc(NCCN(C)C)n1 [S18N7 D1] | 6.8% |
| CCCCCCCCCCCCCCCSc1nc(NCCCCCCC)nc(NCC2CCN(C)CC2)n1 [S15N7 D10] | 33.4% |
| CCCCCCCCCCCCCCCSc1nc(NCCCCCCCCC)nc(NCCCN2CCN(C)CC2)n1 [S15N9 D9] | 13.4% |
| CCCCCCCCCCCCCCSc1nc(NCCCN2CCOCC2)nc(SCCCCCCC)n1 [S7S14 D8] | 11.0% |
| CCCCCCCCCCCCCCCSc1nc(NCCN(C)C)nc(SCCCCCC)n1 [S6S15 D1] | 5.5% |
| CCCCCCCCCCCCNc1nc(NCCN2CCOCC2)nc(SCCCCCCCCCCC)n1 [S11N12 D2] | 3.1% |
| CCCCCCCCCNc1nc(NCCN2CCOCC2)nc(SCCCCCCCCC)n1 [S9N9 D2] | 24.0% |
| CCCCCCCCCCCCCCCNc1nc(NCCN(C)C)nc(SCCCCCCCCCCCC)n1 [S12N15 D1] | 0.8% |
| CCCCCCCNc1nc(NCCCN2CCOCC2)nc(SCCCCCCC)n1 [S7N7 D8] | 5.3% |
| CCCCCCCCCCCCCCCCSc1nc(NCCCCCCCCCCCCCCC)nc(NCCCN2CCOCC2)n1 [S16N15 D8] | 0.0% |
| CCCCCCCCCCCNc1nc(NCCN2CCOCC2)nc(SCCCCCCC)n1 [S7N11 D2] | 31.1% |
| CCCCCCCCCCCCCCCNc1nc(NCCN2CCCCC2)nc(SCCCCCCCCCCCCCC)n1 [S14N15 D4] | 0.4% |
| CCCCCCCCCCCCCCCCCCSc1nc(NCCCCCCCC)nc(NCCN(C)C)n1 [S18N8 D1] | 4.1% |
| CCCCCCCCCCCCCCCCNc1nc(NCCN(CC)CC)nc(SCCCCCCCCCC)n1 [S10N16 D7] | 4.8% |
| CCCCCCCCCCCCN(CCCCCCCCCCCC)c1nc(NCCN(CC)CC)nc(SCCCCCCCCC)n1 [S9^2N12 D7] | 0.2% |
| CCCCCCCCCSc1nc(NCCCN(C)C)nc(SCCCCCC)n1 [S6S9 D6] | 7.1% |
| CCCCCCCCCCCCSc1nc(NCCN2CCOCC2)nc(N(CCCCCCCCCCCC)CCCCCCCCCCCC)n1 [S12^2N12 D2] | 0.0% |
| CCCCCCCCCCCNc1nc(NCCCN2CCN(C)CC2)nc(SCCCCCCCCC)n1 [S9N11 D9] | 49.3% |
| CCCCCCCCCCCCCCCNc1nc(NCCN2CCOCC2)nc(SCCCCCCCCCCCC)n1 [S12N15 D2] | 0.0% |
| CCCCCCCCCCCCCCSc1nc(NCCCCCCCCCCCC)nc(NCCCN(C)C)n1 [S14N12 D6] | 6.3% |
| CCCCCCCCCCCCCCCNc1nc(NCC2CCN(C)CC2)nc(SCCCCCCCCCCC)n1 [S11N15 D10] | 7.0% |

| Compound | Absolute DNA transfection efficiency in HEK293 cells |
| --- | --- |
| CCCCCCCCCCCCCCCSc1nc(NCCCCCCCCC)nc(NCCCN(C)C)n1 [S15N9 D6] | 23.1% |
| CCCCCCCCCCCCCCSc1nc(NCCCCCCCC)nc(NCCN2CCOCC2)n1 [S14N8 D2] | 12.9% |
| CCCCCCCCCCCCCCCNc1nc(NCCN(C)C)nc(SCCCCCCCCCC)n1 [S10N15 D1] | 4.8% |
| CCCCCCCCCSc1nc(NCCCN2CCN(C)CC2)nc(SCCCCCC)n1 [S6S9 D9] | 8.4% |
| CCCCCCCCCCCSc1nc(NCCN2CCOCC2)nc(SCCCCCCC)n1 [S7S11 D2] | 27.3% |
| CCCCCCCCCCCCCCCNc1nc(NCC2CCN(C)CC2)nc(SCCCCCCCCCCCCCCC)n1 [S15N15 D10] | 0.3% |
| CCCCCCCCCCSc1nc(NCCCCCCC)nc(NCCN(C)C)n1 [S10N7 D1] | 8.2% |
| CCCCCCCCCCCCCCCCCCSc1nc(NCCCCCCCCCCCCCCCC)nc(NCCN2CCCCC2)n1 [S18N16 D4] | 0.1% |
| CCCCCCCCCCCCCCCCCCNc1nc(NCC2CCN(C)CC2)nc(SCCCCCCCCC)n1 [S9N18 D10] | 11.2% |
| CCCCCCCCCCCCCCCCCCNc1nc(NCCN2CCOCC2)nc(SCCCCCCCCCCCCCCC)n1 [S15N18 D2] | 0.0% |
| CCCCCCCCCNc1nc(NCCN2CCN(C)CC2)nc(SCCCCCCCC)n1 [S8N9 D5] | 35.9% |
| CCCCCCCCCCCCCCCCNc1nc(NCCN2CCCC2)nc(SCCCCCCCCCCCCCCCC)n1 [S16N16 D3] | 1.6% |
| CCCCCCCCCCCCCCSc1nc(NCCCCCC)nc(NCCCN(C)C)n1 [S14N6 D6] | 30.1% |
| CCCCCCCCCCCCCCCCCCSc1nc(NCCCCCC)nc(NCCN2CCCC2)n1 [S18N6 D3] | 22.1% |
| CCCCCCCCCCSc1nc(NCCCCCCCC)nc(NCCN(C)C)n1 [S10N8 D1] | 7.1% |
| CCCCCCCCCCCCSc1nc(NCCN2CCCC2)nc(N(CCCCCCCCCCCC)CCCCCCCCCCCC)n1 [S12^2N12 D3] | 0.0% |
| CCCCCCCCCCCCNc1nc(NCCN(C)C)nc(SCCCCCCCCCCCC)n1 [S12N12 D1] | 7.9% |
| CCCCCCCCCSc1nc(NCCCCCC)nc(NCCN2CCN(C)CC2)n1 [S9N6 D5] | 22.4% |
| CCCCCCCCCCCCCCCCCCSc1nc(NCCCCCCCC)nc(NCCN2CCCCC2)n1 [S18N8 D4] | 3.9% |
| CCCCCCCCCCCCCCSc1nc(NCCCCCCCCC)nc(NCCCN2CCN(C)CC2)n1 [S14N9 D9] | 16.7% |
| CCCCCCCCSc1nc(NCCCCCCC)nc(NCC2CCN(C)CC2)n1 [S8N7 D10] | 1.2% |
| CCCCCCCCCCCCCCSc1nc(NCCCCCCCCCCCC)nc(NCCN2CCCCC2)n1 [S14N12 D4] | 3.8% |
| CCCCCCCCCCCCCCCSc1nc(NCCCCCCCCC)nc(NCCN2CCCCC2)n1 [S15N9 D4] | 4.5% |
| CCCCCCCCCCCCCCCCSc1nc(NCCCCCCCCCCCCC)nc(NCCN2CCCCC2)n1 [S16N13 D4] | 0.0% |

| Compound | Absolute DNA transfection efficiency in HEK293 cells |
| --- | --- |
| CCCCCCCCCSc1nc(NCCCCCC)nc(NCCCN2CCN(C)CC2)n1 [S9N6 D9] | 11.0% |
| CCCCCCCCCCCCCCSc1nc(NCCCCCCCCCCCCC)nc(NCCN2CCOCC2)n1 [S14N13 D2] | 0.0% |
| CCCCCCCSc1nc(NCCCN2CCN(C)CC2)nc(SCCCCCC)n1 [S6S7 D9] | 7.5% |
| CCCCCCCCCCCCCCCCSc1nc(NCCCCCCCCCCCCC)nc(NCCN2CCCC2)n1 [S16N13 D3] | 1.5% |
| CCCCCCCCNc1nc(NCCN(CC)CC)nc(SCCCCCCC)n1 [S7N8 D7] | 26.8% |
| CCCCCCCCCCCCCCCCNc1nc(NCCN2CCCCC2)nc(SCCCCCCC)n1 [S7N16 D4] | 2.9% |
| CCCCCCCCCCCCSc1nc(NCC2CCN(C)CC2)nc(SCCCCCC)n1 [S6S12 D10] | 24.4% |
| CCCCCCCCCCCSc1nc(NCCCCCCCCC)nc(NCCCN2CCN(C)CC2)n1 [S11N9 D9] | 22.4% |
| CCCCCCCSc1nc(NCCCCCC)nc(NCC2CCN(C)CC2)n1 [S7N6 D10] | 6.3% |
| CCCCCCCCCCCCNc1nc(NCCN(C)C)nc(SCCCCCCCCC)n1 [S9N12 D1] | 39.3% |
| CCCCCCCCCCCCSc1nc(NCCCCCCCCC)nc(NCCCN2CCOCC2)n1 [S12N9 D8] | 0.0% |
| CCCCCCCCCCCCCCCNc1nc(NCCN(C)C)nc(SCCCCCCCC)n1 [S8N15 D1] | 8.0% |
| CCCCCCCCCCCCCCCNc1nc(NCCN(CC)CC)nc(SCCCCCCCCCCCC)n1 [S12N15 D7] | 3.6% |
| CCCCCCCCCCCCCCCCSc1nc(NCCCCCCC)nc(NCCN2CCCCC2)n1 [S16N7 D4] | 6.9% |
| CCCCCCCCCCCCCCSc1nc(NCCN2CCOCC2)nc(N(CCCCCCCCCCCC)CCCCCCCCCCCC)n1 [S14^2N12 D2] | 0.0% |
| CCCCCCCCCCCSc1nc(NCCCCCCCC)nc(NCCN2CCOCC2)n1 [S11N8 D2] | 18.6% |
| CCCCCCCCCCSc1nc(NCCCCCCC)nc(NCCN2CCCC2)n1 [S10N7 D3] | 7.4% |
| CCCCCCCCCCCCCCCCSc1nc(NCCCCCCC)nc(NCCN2CCN(C)CC2)n1 [S16N7 D5] | 10.1% |
| CCCCCCCCCCCCSc1nc(NCCCN2CCOCC2)nc(SCCCCCC)n1 [S6S12 D8] | 7.5% |
| CCCCCCCCCCCSc1nc(NCCN2CCN(C)CC2)nc(SCCCCCCCC)n1 [S8S11 D5] | 10.6% |
| CCCCCCCCCCCCCCCCSc1nc(NCCCCCCCCCCC)nc(NCCN(C)C)n1 [S16N11 D1] | 17.2% |
| CCCCCCCCCCSc1nc(NCCCCCCC)nc(NCCN(CC)CC)n1 [S10N7 D7] | 8.1% |
| CCCCCCCCCCCCCCCCSc1nc(NCCCCCCCC)nc(NCCCN(C)C)n1 [S16N8 D6] | 11.1% |
| CCCCCCCCCCSc1nc(NCCCCCCCCC)nc(NCCCN2CCOCC2)n1 [S10N9 D8] | 3.4% |
